# Test results taken from patent US10238633B2, “Methods for treating pulmonary emphysema using substituted 2-Aza-bicyclo[2.2.1]heptane-3-carboxylic acid (benzyl-cyano-methyl)-amides inhibitors of Cathepsin C” (Boehringer Ingelheim International GmbH, priority 2013, dated 2019).
# Test system: not listed separately
# Assay: Determination of metabolic stability with human liver microsomes
# Conditions: pooled human liver microsomes, 37° C., test compound 1 μM, NADPH
# Description: Determination of Metabolic Stability with Human Liver Microsomes
# The metabolic degradation of the test compound is assayed at 37° C. with pooled human liver microsomes. The final incubation volume of 100 μl per time point contains TRIS buffer pH 7.6 (0.1 M), magnesium chloride (5 mM), microsomal protein (1 mg/ml) and the test compound at a final concentration of 1 μM. Following a short preincubation period at 37° C., the reactions are initiated by addition of beta-nicotinamide adenine dinucleotide phosphate, reduced form (NADPH, 1 mM) and terminated by transferring an aliquot into acetonitrile after different time points. Additionally, the NADPH-independent degradation is monitored in incubations without NADPH, terminated at the last time point. The [%] remaining test compound after NADPH independent incubation is reflected by the parameter c(control) (metabolic stability). The quenched incubations are pelleted by centrifugation (10,000 g, 5 min). An aliquot of the supernatant is assayed by LC-MS/MS for the amount of parent compound.
# The half-life (t1/2 INVITRO) is determined by the slope of the semilogarithmic plot of the concentration-time profile. The intrinsic clearance (CL_[sequence]) is calculated by considering the amount of protein in the incubation: CL_[sequence] [μl/min/mg protein]=(In 2/(half-life [min]*protein content [mg/ml]))*1,000.
row,Structure (SMILES),In vitro stability in human liver microsome incubations t½ [h]
1,CN1C(=O)Cc2ccc(-c3ccc(CC(C#N)NC(=O)[C@H]4N[C@@H]5CC[C@H]4C5)c(F)c3)cc21 (some centres unmarked) [Example 15],2.17
2,N#CC(Cc1ccc(-c2cnn(-c3ccccc3)c2)cc1F)NC(=O)[C@H]1N[C@@H]2CC[C@H]1C2 (some centres unmarked) [Example 78],2.17
3,CS(=O)(=O)c1ccc(-c2ccc(C[C@@H](C#N)NC(=O)[C@H]3N[C@@H]4CC[C@H]3C4)c(F)c2)cc1OCC(F)F [Example 252],2.17
4,CS(=O)(=O)c1cc(OCC(F)(F)F)cc(-c2ccc(C[C@@H](C#N)NC(=O)[C@H]3N[C@@H]4CC[C@H]3C4)c(F)c2)c1 [Example 276],2.17

# Test system: Neutrophil elastase activity in U937 cells
# Assay: Determination of neutrophil elastase activity in U937 cytosolic lysate preparation after incubation with test compound
# Assay type: cell-based
# Conditions: Homo sapiens, U-937, read-out: Reduction of NE-activity in U937 cells IC50
# Description: Determination of Neutrophil Elastase Activity in U937 Cytosolic Lysate Preparation after Incubation with Test Compound
# Optiplate 384F were purchased from PerkinElmer (Prod. No. #6007270). 24 well Nunclon cell culture plates (No. 142475) and 96 well plates (No. 267245) were from Nunc. Dimethylsulfoxid (DMSO) was from Sigma (Prod. No. D8418). Nonidet-P40 (NP40) was from USBiological (Prod. No. N3500)
# Substrate, specific for Neutrophil elastase, was from Bachem (MeOSuc-Ala-Ala-Pro-Val-AMC; Prod. No. 1-1270).
# Human neutrophil elastase was from Calbiochem (Prod. No. 324681)
# Tris-buffer (100 mM Tris; 1M NaCL; pH 7.5)
# Tris-buffer+HSA 0.1%; Human Serum Albumin from Calbiochem (Cat#. 126658)
# Serine-protease buffer (20 mM Tris; 100 mM NaCL; pH 7.5)+0.1% HSA
# Serine protease lysis buffer: 20 mM Tris-HCL; 100 mM NaCl pH 7.5; +0.2% Nonidet-P40;
# PBS: phosphate buffered saline, without Ca and Mg, from Gibco
# U937 from ECACC (Cat. No. 85011440) cultured in suspension at 37° C. and 5% CO2.
# Cell density: 0.2-1 Mio. Cells/ml.
# Medium: RPMI1640 GlutaMAX (No. 61870) with 10% FCS from Gibco
# Cell Seeding and Treatment:
# Compounds in 100% DMSO were diluted in Medium (—FCS) with 10% DMSO and further diluted according to the experiment planned.
# 20 μl of the compound solution was transferred in the respective wells of the 24 well plate and diluted with 2 ml cell suspension/well containing […] (final concentration of DMSO=0.1%). Compound dilution factor=100
# Compounds (up to 7 concentrations) were tested in triplicates with 3 wells for the DMSO 0.1% control, incubated for 48 hours without medium change at 37° C., 5% CO2 and 95% relative humidity.
# Cell Harvesting and Cell Lysate:
# Transfer the cell suspension in 2.2 ml Eppendorf cups. Separate cells from medium by centrifugation (400×g; 5 min; RT); discard the supernatant. Resuspend in 1 ml PBS; centrifugation (400×g; 5 min; RT); wash cells twice with PBS. Add 100 μl Serin lysis buffer (ice cold) to the cell pellet; resuspend the pellet and store on ice for 15 minutes. Remove debris by centrifugation at 15000×g for 10 min at 4° C. Transfer 80-100 μl lysate supernatant in 96 well plate and store immediately at −80° C.
# Neutrophil Elastase Activity Assay:
# Frozen lysates were thawn at 37° C. for 10 minutes and stored on ice. Protein content was determined with Bradford protein assay. Lysates were diluted to 0.2-0.5 mg/ml protein in serine protease buffer+HSA.
# Standard: NE (100 μg/ml stock solution in Tris-buffer; stored at −80° C.) was diluted in Tris-buffer+HSA to 750 ng/ml, and further serially diluted 1:2 for the standard curve.
# Buffer, blank, standard and lysate samples were transferred into 384 well plate
# Blank: 5 μl Tris-buffer+10 μl Tris-buffer+HSA+5 μl Substrate
# Standard: 5 μl Tris-buffer+10 μl NE (diff. conc.)+5 μl Substrate
# Lysate: 5 μl Tris-buffer+10 μl Lysat+[…] Substrate
# The increase in fluorescence (Ex360 nm/Em 460 nm) is determined over 30 minutes with a Molecular Device Spectramax M5 Fluorescence Reader. Kinetic Reduction (Vmax units/sec); 4 vmax points. The amount of neutrophil elastase (ng/ml) is calculated using the standard curve and the Spectramax software. The result is interpolated to ng/mg lysate protein using excel formula functions. […] IC50 is calculated using Graphpad Prism; nonlinear fitting (log(inhibitor) vs. response—Variable slope).
row,Structure (SMILES),IC50 [nM]
1,CC(C)N1CCCN(c2ccc(C[C@@H](C#N)NC(=O)[C@H]3N[C@@H]4CC[C@H]3C4)c(F)c2)CC1 [Example 267],2.7
2,CO[C@@H]1C[C@@H]2CN(c3ccc(C[C@@H](C#N)NC(=O)[C@H]4N[C@@H]5CC[C@H]4C5)c(F)c3)CCN2C1 [Example 269],5.5
3,N#C[C@H](Cc1ccc(N2CCN3CCC[C@H]3C2)cc1F)NC(=O)[C@H]1N[C@@H]2CC[C@H]1C2 [Example 270],1.4
4,CCN1CCN(c2ccc(C[C@@H](C#N)NC(=O)[C@H]3N[C@@H]4CC[C@H]3C4)c(F)c2)CC1 [Example 272],2.4
5,CN(C)CCCN1C(=O)Cc2ccc(-c3ccc(C[C@@H](C#N)NC(=O)[C@H]4N[C@@H]5CC[C@H]4C5)c(F)c3)cc21 [Example 277],3.6
6,CN(C)CCN1C(=O)Cc2ccc(-c3ccc(C[C@@H](C#N)NC(=O)[C@H]4N[C@@H]5CC[C@H]4C5)c(F)c3)cc21 [Example 278],1
7,CN(C)CCN1C(=O)Cc2cc(-c3ccc(C[C@@H](C#N)NC(=O)[C@H]4N[C@@H]5CC[C@H]4C5)c(F)c3)ccc21 [Example 279],1.9
8,N#C[C@H](Cc1ccc(C2=CCN3CCOCC3C2)cc1F)NC(=O)[C@H]1N[C@@H]2CC[C@H]1C2 (some centres unmarked) [Example 281],1.9
9,N#C[C@H](Cc1ccc(C2=CC3COCCN3CC2)cc1F)NC(=O)[C@H]1N[C@@H]2CC[C@H]1C2 (some centres unmarked) [Example 282],3.4
10,N#C[C@H](Cc1ccc([C@@H]2CCN3CCOC[C@H]3C2)cc1F)NC(=O)[C@H]1N[C@@H]2CC[C@H]1C2 [Example 283],4.5
11,N#C[C@H](Cc1ccc([C@H]2CCN3CCOC[C@H]3C2)cc1F)NC(=O)[C@H]1N[C@@H]2CC[C@H]1C2 [Example 284],5.3
12,CN1CCN(C(=O)c2ccc(-c3ccc(C[C@@H](C#N)NC(=O)[C@H]4N[C@@H]5CC[C@H]4C5)c(F)c3)o2)CC1 [Example 289],3.9
13,N#CC(Cc1cc2c(=O)[nH]c3cc(F)ccc3c2cc1F)NC(=O)[C@H]1N[C@@H]2CC[C@H]1C2 (some centres unmarked) [Example 293],4.6
14,N#CC(Cc1cc2c(=O)[nH]c3ccccc3c2cc1F)NC(=O)[C@H]1N[C@@H]2CC[C@H]1C2 (some centres unmarked) [Example 294],7.8
15,N#CC(Cc1cc2c(=O)[nH]c3ccc(F)cc3c2cc1F)NC(=O)[C@H]1N[C@@H]2CC[C@H]1C2 (some centres unmarked) [Example 295],8.6
16,N#CC(Cc1ccc2c(c1)c(=O)[nH]c1c(F)c(F)ccc12)NC(=O)[C@H]1N[C@@H]2CC[C@H]1C2 (some centres unmarked) [Example 300],8.9
17,Cn1c(=O)c2cc(CC(C#N)NC(=O)[C@H]3N[C@@H]4CC[C@H]3C4)ccc2c2ccc(C#N)cc21 (some centres unmarked) [Example 303],8.3
18,"CN1CCC(Oc2ccc(C[C@@H](C#N)NC(=O)[C@H]3N[C@@H]4CC[C@H]3C4)c(F)c2)CC1 [Example 319, (1S,2S,4R)—N-[(1S)-1-cyano-2-[2-fluoro-4-[(1-methyl-4-piperidyl)oxy]phenyl]ethyl]-3-azabicyclo[2.2.1]heptane-2-carboxamide]",9.3
19,CCN1CC=C(c2ccc(C[C@@H](C#N)NC(=O)[C@H]3N[C@@H]4CC[C@H]3C4)c(F)c2)CC1 [Example 320],3.7
20,N#C[C@H](Cc1cc2c(=O)[nH]c3ccccc3c2cc1F)NC(=O)[C@H]1N[C@@H]2CC[C@H]1C2 [Example 322],2.1

row,Structure (SMILES),IC50 [nM]
1,N#C[C@H](Cc1cc2c(=O)[nH]c3cc(F)ccc3c2cc1F)NC(=O)[C@H]1N[C@@H]2CC[C@H]1C2 [Example 323],1.4
2,N#C[C@H](Cc1cc2c(=O)[nH]c3c(F)c(F)ccc3c2cc1F)NC(=O)[C@H]1N[C@@H]2CC[C@H]1C2 [Example 324],1.3
3,N#Cc1cc(F)c2[nH]c(=O)c3cc(C[C@@H](C#N)NC(=O)[C@H]4N[C@@H]5CC[C@H]4C5)c(F)cc3c2c1 [Example 325],4.7
4,Cn1c(=O)c2cc(C[C@@H](C#N)NC(=O)[C@H]3N[C@@H]4CC[C@H]3C4)c(F)cc2c2ccccc21 [Example 326],1.9
5,CN1CC2CCC(C1)N2c1ccc(C[C@@H](C#N)NC(=O)[C@H]2N[C@@H]3CC[C@H]2C3)c(F)c1 [Example 328],1.2
6,N#C[C@H](Cc1ccc(N2C3CCC2CN(C2CCOC2)C3)cc1F)NC(=O)[C@H]1N[C@@H]2CC[C@H]1C2 (some centres unmarked) [Example 329],2.5
7,CN1CC2(C1)CN(c1ccc(C[C@@H](C#N)NC(=O)[C@H]3N[C@@H]4CC[C@H]3C4)c(F)c1)C2 [Example 330],37.7
8,N#C[C@H](Cc1ccc(N2CCN(C3CCOC3)CC2)cc1F)NC(=O)[C@H]1N[C@@H]2CC[C@H]1C2 (some centres unmarked) [Example 331],6
9,N#C[C@H](Cc1ccc(C2=CCN(C3CCOC3)CC2)cc1F)NC(=O)[C@H]1N[C@@H]2CC[C@H]1C2 (some centres unmarked) [Example 332],5.8
10,CN1C2CCC1CN(c1ccc(C[C@@H](C#N)NC(=O)[C@H]3N[C@@H]4CC[C@H]3C4)c(F)c1)C2 [Example 333],4.7
11,CN1CCN(S(=O)(=O)c2cc(-c3ccc(C[C@@H](C#N)NC(=O)[C@H]4N[C@@H]5CC[C@H]4C5)c(F)c3)ccc2F)CC1 [Example 339],0.6
12,CN1CCCN(S(=O)(=O)c2ccc(-c3ccc(C[C@@H](C#N)NC(=O)[C@H]4N[C@@H]5CC[C@H]4C5)c(F)c3)cc2)CC1 [Example 340],0.8
13,CN(C)CCn1cc(-c2ccc(C[C@@H](C#N)NC(=O)[C@H]3N[C@@H]4CC[C@H]3C4)c(F)c2)ccc1=O [Example 342],24.7
14,N#C[C@H](Cc1ccc(-c2ccc(=O)n(CC(F)F)c2)cc1F)NC(=O)[C@H]1N[C@@H]2CC[C@H]1C2 [Example 343],16.9
15,"CN(C)C1CCCN(c2ccc(C[C@@H](C#N)NC(=O)[C@H]3N[C@@H]4CC[C@H]3C4)c(F)c2)C1 (stereo partly drawn) [Example 344, (1S,2S,4R)—N-[(1S)-1-cyano-2-[4-[3-(dimethylamino)-1-piperidyl]-2-fluoro-phenyl]ethyl]-3-azabicyclo[2.2.1]heptane-2-carboxamide]",4.1
16,CN(C)CC1CCCN(c2ccc(C[C@@H](C#N)NC(=O)[C@H]3N[C@@H]4CC[C@H]3C4)c(F)c2)C1 (some centres unmarked) [Example 345],6.9
17,CN1CCC(N2C(=O)Cc3ccc(-c4ccc(C[C@@H](C#N)NC(=O)[C@H]5N[C@@H]6CC[C@H]5C6)c(F)c4)cc32)CC1 [Example 346],6.8
18,CN1CCC2CN(c3ccc(C[C@@H](C#N)NC(=O)[C@H]4N[C@@H]5CC[C@H]4C5)c(F)c3)CC21 (some centres unmarked) [Example 349],2.8
19,CN1CCC2(CC1)CC(c1ccc(C[C@@H](C#N)NC(=O)[C@H]3N[C@@H]4CC[C@H]3C4)c(F)c1)C2 [Example 358],3.7
20,CN1CCC2(C=C(c3ccc(C[C@@H](C#N)NC(=O)[C@H]4N[C@@H]5CC[C@H]4C5)c(F)c3)C2)CC1 [Example 359],2.9
